Results published in ChEMBL document CHEMBL3621144, “Small-Molecule Allosteric Modulators of the Protein Kinase PDK1 from Structure-Based Docking” (J Med Chem, 2015).
Calls of active or inactive are those of the source. The rule behind the calls is not given here.

Target: T1, 3-phosphoinositide-dependent protein kinase 1 (Homo sapiens, UniProt O15530)
T1 sequence (O15530 whole entry): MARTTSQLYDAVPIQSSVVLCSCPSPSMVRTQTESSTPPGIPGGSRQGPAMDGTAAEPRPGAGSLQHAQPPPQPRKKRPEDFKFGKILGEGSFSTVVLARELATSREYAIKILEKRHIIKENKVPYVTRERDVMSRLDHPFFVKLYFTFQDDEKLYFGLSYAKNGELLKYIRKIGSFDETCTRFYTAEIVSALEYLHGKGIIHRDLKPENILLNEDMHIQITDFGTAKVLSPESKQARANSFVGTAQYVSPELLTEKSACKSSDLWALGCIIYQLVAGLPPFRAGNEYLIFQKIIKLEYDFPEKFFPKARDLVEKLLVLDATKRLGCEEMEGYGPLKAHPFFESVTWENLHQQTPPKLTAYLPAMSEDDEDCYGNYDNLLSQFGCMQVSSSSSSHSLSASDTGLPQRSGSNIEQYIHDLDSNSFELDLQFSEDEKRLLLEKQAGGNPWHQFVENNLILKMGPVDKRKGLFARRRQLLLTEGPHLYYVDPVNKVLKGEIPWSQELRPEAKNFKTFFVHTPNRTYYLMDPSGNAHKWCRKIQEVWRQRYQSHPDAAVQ
Test: Displacement of PIFtide from human PDK1 PIF pocket after 1 hr by fluorescence polarization assay

Row | SMILES | Kd [µM]
1 | Cc1cccc(OCCSc2nc3ccccc3n2CC(=O)O)c1C | 110
2 | O=C(O)Cn1c(SCc2cccc3ccccc23)nc2ccccc21 | 120
3 | O=C(O)Cn1c(SCCOc2ccccc2)nc2ccccc21 | > 200
4 | O=C(O)C/C(=C/c1cccc(C(F)(F)F)c1)c1nc2ccccc2o1 | > 200
5 | O=P(O)(O)[C@H](NCCc1ccc(F)cc1)c1ccc(F)cc1 | > 200
6 | C[C@H](CN[C@H](c1ccc(F)cc1)P(=O)(O)O)c1ccccc1 | > 200
7 | O=C(O)Cn1c(SCCOc2ccccc2F)nc2ccccc21 | > 200
8 | C[C@@H](CN[C@H](c1ccccc1)P(=O)(O)O)c1ccccc1 | 150
9 | COc1ccccc1OCCSc1nc2ccccc2n1CC(=O)O | > 200
10 | O=C(O)CSc1nc2ccccc2n1CCOc1ccccc1 | 120
11 | O=C(O)Cn1c(SCc2ccccc2)nc2ccccc21 | > 200

These reach a lower Kd. Values come first.

Row | Kd [µM] | SMILES
12 | 50 | Cc1ccccc1OCCSc1nc2ccccc2n1CC(=O)O
13 | 39.4 | O=P(O)(O)[C@H](NC[C@@H]1CCCc2ccccc21)c1ccc(F)cc1
14 | 75 | Cc1cccc(OCCn2c(SCC(=O)O)nc3ccccc32)c1
15 | 74 | Cc1ccccc1OCCSc1nc2ccccc2n1CCC(=O)O
16 | 39.1 | Cc1ccc(OCCSc2nc3ccccc3n2CC(=O)O)c(C)c1
17 | 83 | C[C@@H](CN[C@H](c1ccc(F)c(F)c1)P(=O)(O)O)c1ccccc1

Test system: not listed separately
Test: Induction of colloidal aggregates formation in Tris/NaCl/Pluronic F-68 buffer at 100 uM by dynamic light scattering method
Format: physicochemical

Row | SMILES | Activity
18 | Cc1ccc(OCCSc2nc3ccccc3n2CC(=O)O)c(C)c1 | Not Active

Test system: not listed separately
Test: Induction of colloidal aggregates formation in Tris/NaCl/MgCl2/CHAPS/beta-mercaptoethanol buffer at 200 uM by dynamic light scattering method
Format: physicochemical

Row | SMILES | Activity
19 | O=P(O)(O)[C@H](NC[C@@H]1CCCc2ccccc21)c1ccc(F)cc1 | Not Active
20 | Cc1ccc(OCCSc2nc3ccccc3n2CC(=O)O)c(C)c1 | Not Active

Test system: not listed separately
Test: Induction of colloidal aggregates formation in Tris/NaCl/Pluronic F-68 buffer at 300 uM by dynamic light scattering method
Format: physicochemical

Row | SMILES | Activity
21 | O=P(O)(O)[C@H](NC[C@@H]1CCCc2ccccc21)c1ccc(F)cc1 | Not Active
22 | Cc1ccc(OCCSc2nc3ccccc3n2CC(=O)O)c(C)c1 | Not Active

Target: Cruzipain (Trypanosoma cruzi) (UniProt P25779)
Test: Inhibition of Trypanosoma cruzi Cruzain using Z-FR-AMC as substrate preincubated for 5 mins followed by substrate addition measured for 5 mins by spectrofluorimetric analysis

Chain of Cruzipain (Trypanosoma cruzi) (P25779 123-467 limits assumed): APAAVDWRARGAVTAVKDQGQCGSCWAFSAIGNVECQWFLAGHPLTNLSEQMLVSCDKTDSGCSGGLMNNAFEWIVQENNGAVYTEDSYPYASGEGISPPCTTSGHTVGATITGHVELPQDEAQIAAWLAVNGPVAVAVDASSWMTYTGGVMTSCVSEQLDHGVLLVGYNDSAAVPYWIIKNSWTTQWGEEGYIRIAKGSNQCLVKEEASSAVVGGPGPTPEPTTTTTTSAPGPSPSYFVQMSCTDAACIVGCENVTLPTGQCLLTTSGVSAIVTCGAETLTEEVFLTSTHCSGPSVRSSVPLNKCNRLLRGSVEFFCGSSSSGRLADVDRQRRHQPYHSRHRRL

Row | SMILES | inhibition
23 | O=P(O)(O)[C@H](NC[C@@H]1CCCc2ccccc21)c1ccc(F)cc1 | inactive
24 | Cc1ccc(OCCSc2nc3ccccc3n2CC(=O)O)c(C)c1 | inactive

Target: T1, 3-phosphoinositide-dependent protein kinase 1
Test: Activation of human PDK1 catalytic activity using T308tide as substrate after 1 hr by phosphor imager analysis in presence of [gamma-32P]-ATP relative to control

Row | SMILES | EC50 [µM]
25 | O=P(O)(O)[C@H](NC[C@@H]1CCCc2ccccc21)c1ccc(F)cc1 | 50
26 | Cc1ccc(OCCSc2nc3ccccc3n2CC(=O)O)c(C)c1 | 40
